Experimental data as given in PubChem BioAssay AID248 (DTP/NCI, 2004).
Where “and” joins values, the source holds several entries; their conditions need not be identical. Equal entries are not always repeated. Toxic doses and inconclusive results are not listed. Rule as the data show it: active = T/C of 150% or more; inactive = T/C below 125%. Square brackets hold non-standard residues; d marks the D form. Peptide text beside a SMILES is read from it. Sar = CNCC(=O)O

Tested on: L1210 leukemia ip in BDF1 mice, survival T/C
Assay: NCI In Vivo Anticancer Drug Screen. Data for tumor model L1210 Leukemia (intraperitoneal) in B6D2F1 (BDF1) mice
Conditions: endpoint: mean survival time, higher = longer survival
Method in brief: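 In this screen, tumor-bearing mice given compound are compared to those given vehicle, and their survival values are reported as a treated-to-control quotient.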

[1] = dose: 100.0 mg/kg/injection, schedule: Q04DX002 (ip), vehicle: saline
[2] = dose: 100.0 mg/kg/injection, schedule: Q01DX001 (ip), vehicle: Klucel (hydroxypropylcellulose) (HPC)
[3] = dose: 100.0 mg/kg/injection, schedule: Q04DX003 (ip), vehicle: Klucel (hydroxypropylcellulose) (HPC)
[4] = dose: 200.0 mg/kg/injection, schedule: Q01DX001 (ip), vehicle: Klucel (hydroxypropylcellulose) (HPC)
[5] = dose: 200.0 mg/kg/injection, schedule: Q04DX003 (ip), vehicle: Klucel (hydroxypropylcellulose) (HPC)
[6] = dose: 400.0 mg/kg/injection, schedule: Q01DX001 (ip), vehicle: Klucel (hydroxypropylcellulose) (HPC)
[7] = dose: 400.0 mg/kg/injection, schedule: Q04DX003 (ip), vehicle: Klucel (hydroxypropylcellulose) (HPC)
[8] = dose: 100.0 mg/kg/injection, schedule: Q04DX003 (ip), vehicle: saline
[9] = dose: 200.0 mg/kg/injection, schedule: Q04DX003 (ip), vehicle: saline
[10] = dose: 100.0 mg/kg/injection, schedule: Q01DX009 (ip), vehicle: saline with Tween-80
[11] = dose: 200.0 mg/kg/injection, schedule: Q01DX009 (ip), vehicle: saline with Tween-80
[12] = dose: 100.0 mg/kg/injection, schedule: Q01DX001 (ip), vehicle: saline
[13] = dose: 200.0 mg/kg/injection, schedule: Q01DX001 (ip), vehicle: saline
[14] = dose: 400.0 mg/kg/injection, schedule: Q01DX001 (ip), vehicle: saline
[15] = dose: 100.0 mg/kg/injection, schedule: Q01DX009 (ip), vehicle: Klucel (hydroxypropylcellulose) (HPC)
[16] = dose: 200.0 mg/kg/injection, schedule: Q01DX009 (ip), vehicle: Klucel (hydroxypropylcellulose) (HPC)
[17] = dose: 25.0 mg/kg/injection, schedule: Q01DX009 (ip), vehicle: Klucel (hydroxypropylcellulose) (HPC)
[18] = dose: 50.0 mg/kg/injection, schedule: Q01DX009 (ip), vehicle: Klucel (hydroxypropylcellulose) (HPC)

Measured: T/C

NC(N)=N/N=C/c1ccccn1
inactive: dose: 15.0 mg/kg/injection, schedule: Q01DX Z (ip), vehicle: saline 94 % of control | dose: 30.0 mg/kg/injection, schedule: Q01DX Z (ip), vehicle: saline 102 % of control | dose: 60.0 mg/kg/injection, schedule: Q01DX Z (ip), vehicle: saline 95 % of control and 101 % of control | dose: 60.0 mg/kg/injection, schedule: Q01DX Z (oral), vehicle: saline 103 % of control | dose: 120.0 mg/kg/injection, schedule: Q01DX Z (ip), vehicle: saline 96 % of control and 98 % of control | dose: 120.0 mg/kg/injection, schedule: Q01DX Z (oral), vehicle: saline 108 % of control | dose: 240.0 mg/kg/injection, schedule: Q01DX Z (oral), vehicle: saline 103 % of control | dose: 480.0 mg/kg/injection, schedule: Q01DX Z (oral), vehicle: saline 107 % of control

CN(CC(=O)O)C(=O)CN (H-Gly-[Sar]-OH)
inactive: dose: 25.0 mg/kg/injection, schedule: Q04DX002 (ip), vehicle: saline 113 % of control | dose: 50.0 mg/kg/injection, schedule: Q04DX002 (ip), vehicle: saline 97 % of control | [1] 103 % of control

CCC[n+]1nc2ccccc2c(=Nc2ccccc2[N+](=O)[O-])[n-]1
inactive: [2] 100 % of control | [3] 98 % of control | [4] 100 % of control | [5] 106 % of control | [6] 98 % of control | [7] 101 % of control

c1ccc(OP2OCCO2)cc1
inactive: dose: 50.0 mg/kg/injection, schedule: Q01DX009 (ip), vehicle: saline 92 % of control | dose: 50.0 mg/kg/injection, schedule: Q04DX003 (ip), vehicle: saline 105 % of control | dose: 100.0 mg/kg/injection, schedule: Q01DX009 (ip), vehicle: saline 102 % of control | [8] 102 % of control | dose: 200.0 mg/kg/injection, schedule: Q01DX009 (ip), vehicle: saline 92 % of control | [9] 103 % of control

CN(C)c1ccc(C(O)C(N)=O)cc1 (configuration not stated)
inactive: dose: 6.25 mg/kg/injection, schedule: Q01DX001 (ip), vehicle: saline 103 % of control | dose: 12.5 mg/kg/injection, schedule: Q01DX001 (ip), vehicle: saline 94 % of control | dose: 25.0 mg/kg/injection, schedule: Q01DX001 (ip), vehicle: saline 97 % of control

Cc1c2c(cc3c1[nH]c1ccccc13)C(C(F)(F)F)=NCC2
inactive: dose: 16.0 mg/kg/injection, schedule: Q01DX005 (ip), vehicle: saline 97 % of control | dose: 32.0 mg/kg/injection, schedule: Q01DX005 (ip), vehicle: saline 100 % of control | dose: 64.0 mg/kg/injection, schedule: Q01DX005 (ip), vehicle: saline 100 % of control | dose: 128.0 mg/kg/injection, schedule: Q01DX005 (ip), vehicle: saline 101 % of control

CN=C(NC)c1ccc(NC(=NC)c2ccc(C(=NC)Nc3ccc(C(=NC)NC)cc3)cc2)cc1
inactive: dose: 0.5 mg/kg/injection, schedule: Q01DX Z (ip), vehicle: saline 96 % of control | dose: 0.8 mg/kg/injection, schedule: Q01DX Z (ip), vehicle: saline 94 % of control | dose: 1.2 mg/kg/injection, schedule: Q01DX Z (ip), vehicle: saline 100 % of control | dose: 1.7 mg/kg/injection, schedule: Q01DX Z (ip), vehicle: saline 105 % of control | dose: 1.77 mg/kg/injection, schedule: Q01DX Z (ip), vehicle: saline 98 % of control | dose: 2.66 mg/kg/injection, schedule: Q01DX Z (ip), vehicle: saline 104 % of control | dose: 4.0 mg/kg/injection, schedule: Q01DX Z (ip), vehicle: saline 89 % of control | dose: 6.0 mg/kg/injection, schedule: Q01DX Z (ip), vehicle: saline 93 % of control and 103 % of control

Cc1ccc(CNc2cc(C)ccn2)cc1
inactive: dose: 50.0 mg/kg/injection, schedule: Q01DX009 (ip), vehicle: saline with Tween-80 96 % of control | [10] 101 % of control | [11] 101 % of control

NC(=O)CCC(NC(=O)Cc1ccccc1)C(=O)O (configuration not stated)
inactive: dose: 18.75 mg/kg/injection, schedule: Q01DX001 (ip), vehicle: Klucel (hydroxypropylcellulose) (HPC) 92 % of control | dose: 37.5 mg/kg/injection, schedule: Q01DX001 (ip), vehicle: Klucel (hydroxypropylcellulose) (HPC) 100 % of control | dose: 75.0 mg/kg/injection, schedule: Q01DX001 (ip), vehicle: Klucel (hydroxypropylcellulose) (HPC) 97 % of control

Cc1ccc(S(=O)(=O)Nc2ccc(Cl)c(Cl)c2)cc1
inactive: [3] 97 % of control | [5] 96 % of control | [7] 94 % of control

CC(C)=CCCC(C)CCOc1ccc(C(C)C)cc1 (configuration not stated)
inactive: dose: 100.0 mg/kg/injection, schedule: Q04DX002 (ip), vehicle: saline with Tween-80 108 % of control | dose: 200.0 mg/kg/injection, schedule: Q04DX002 (ip), vehicle: saline with Tween-80 96 % of control | dose: 400.0 mg/kg/injection, schedule: Q04DX002 (ip), vehicle: saline with Tween-80 103 % of control

CC(=O)Nc1cc(Cl)ccc1SC1OC(COC(C)=O)C(OC(C)=O)C(OC(C)=O)C1OC(C)=O (configuration not stated)
inactive: [12] 93 % of control | [13] 95 % of control | [14] 87 % of control

Cc1ccc([N+](=O)[O-])cc1[I+]c1ccccc1C(=O)[O-]
inactive: dose: 50.0 mg/kg/injection, schedule: Q01DX001 (ip), vehicle: saline 103 % of control | [12] 106 % of control | [13] 91 % of control | [14] 101 % of control

c1ccc2c3c([nH]c2c1)CCCC3
inactive: [15] 97 % of control | [3] 107 % of control | [16] 113 % of control | [5] 105 % of control | [7] 102 % of control

CCCCCCCCCCCCCCCCCC[N+]1(C)CCC1C (configuration not stated)
inactive: dose: 0.78 mg/kg/injection, schedule: Q04DX003 (ip), vehicle: saline 102 % of control | dose: 1.56 mg/kg/injection, schedule: Q04DX003 (ip), vehicle: saline 101 % of control

CCCCCCOC(=O)C(C)(O)C(Cl)c1ccccc1 (configuration not stated)
inactive: [1] 100 % of control | dose: 200.0 mg/kg/injection, schedule: Q04DX002 (ip), vehicle: saline 111 % of control | dose: 400.0 mg/kg/injection, schedule: Q04DX002 (ip), vehicle: saline 91 % of control

O=C(O)C1C2C3CC(C4CC43)C12 (configuration not stated)
inactive: [10] 96 % of control | [8] 96 % of control | [11] 106 % of control | [9] 93 % of control | dose: 400.0 mg/kg/injection, schedule: Q01DX009 (ip), vehicle: saline with Tween-80 96 % of control | dose: 400.0 mg/kg/injection, schedule: Q04DX003 (ip), vehicle: saline 100 % of control

O=[N+]([O-])/C=C/c1ccc(Cl)cc1
inactive: [17] 97 % of control | [18] 103 % of control

O=Cc1ccccc1B(O)O
inactive: [18] 96 % of control and 101 % of control | [15] 97 % of control and 100 % of control | [3] 98 % of control | [16] 105 % of control and 124 % of control | [5] 86 % of control

c1ccc2cc(C3SCCS3)ccc2c1
inactive: dose: 75.0 mg/kg/injection, schedule: Q04DX003 (ip), vehicle: Klucel (hydroxypropylcellulose) (HPC) 88 % of control | [2] 95 % of control | dose: 150.0 mg/kg/injection, schedule: Q04DX003 (ip), vehicle: Klucel (hydroxypropylcellulose) (HPC) 86 % of control | [4] 97 % of control | dose: 300.0 mg/kg/injection, schedule: Q04DX003 (ip), vehicle: Klucel (hydroxypropylcellulose) (HPC) 110 % of control | [6] 101 % of control

Nc1nc(=S)c2[nH]c(N=Nc3ccc(S(=O)(=O)Nc4nccs4)cc3)nc2[nH]1
inactive: dose: 6.25 mg/kg/injection, schedule: Q01DX009 (ip), vehicle: Klucel (hydroxypropylcellulose) (HPC) 92 % of control | dose: 12.5 mg/kg/injection, schedule: Q01DX009 (ip), vehicle: Klucel (hydroxypropylcellulose) (HPC) 92 % of control | [17] 100 % of control | dose: 35.0 mg/kg/injection, schedule: Q01DX001 (ip), vehicle: Klucel (hydroxypropylcellulose) (HPC) 119 % of control | [2] 123 % of control | [15] 88 % of control
